The record followed here is patent publication US8759342B2, “Benzo[1,4]oxazin-3-one, benzo[1,4]thiazin-3-one and quinolin-2-one urotensin II receptor antagonists” (Janssen Pharmaceutica NV, priority 2006, dated 2014).

Test [1] addresses T1, Human UII receptors (Homo sapiens, UniProt Q9UKP6).
T1 construct: host or cells: Human Skeletal Muscle Myoblasts (HSMM), intact adherent cells
T1 sequence (Q9UKP6 1-389): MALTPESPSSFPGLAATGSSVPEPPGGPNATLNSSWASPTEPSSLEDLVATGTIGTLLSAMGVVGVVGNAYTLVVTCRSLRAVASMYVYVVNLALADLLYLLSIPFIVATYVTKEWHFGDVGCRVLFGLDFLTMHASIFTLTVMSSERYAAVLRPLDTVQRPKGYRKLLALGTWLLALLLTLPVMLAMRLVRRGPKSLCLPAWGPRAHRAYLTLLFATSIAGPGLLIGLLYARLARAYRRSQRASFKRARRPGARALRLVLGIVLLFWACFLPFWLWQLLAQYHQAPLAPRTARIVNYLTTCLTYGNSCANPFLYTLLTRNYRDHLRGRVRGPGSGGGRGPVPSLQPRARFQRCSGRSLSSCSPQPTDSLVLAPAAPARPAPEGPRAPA
Kind of test: Human radioligand binding assay, (125I)-U-II on HSMM. Particulars: 0.150 nM (125I)-U-II, intact Human Skeletal Muscle Myoblasts, 3 hrs, 25° C.; read-out: Ki. As for the experimental part: Human Skeletal Muscle Myoblasts (HSMM) were obtained from Cambrex, and were cultured according to manufacturer's instruction. Cell viability was examined by trypan blue exclusion. Cells at less than 4 passages were used in all studies. […] The binding medium used was Dulbecco's modified Eagle's medium (DMEM) containing 2 mg/ml BSA and 25 mM HEPES (pH 7.4). […] The cells were washed 4× with the binding medium and solubilized in 1% SDS and 0.5 N NaOH. Radioactivity was quantified by gamma counting.

Test [2] has as its target T2, rat GPR14 (U-II receptor) (Rattus norvegicus, UniProt P49684).
T2 construct: expressed in transfected cells
T2 sequence (P49684 1-386): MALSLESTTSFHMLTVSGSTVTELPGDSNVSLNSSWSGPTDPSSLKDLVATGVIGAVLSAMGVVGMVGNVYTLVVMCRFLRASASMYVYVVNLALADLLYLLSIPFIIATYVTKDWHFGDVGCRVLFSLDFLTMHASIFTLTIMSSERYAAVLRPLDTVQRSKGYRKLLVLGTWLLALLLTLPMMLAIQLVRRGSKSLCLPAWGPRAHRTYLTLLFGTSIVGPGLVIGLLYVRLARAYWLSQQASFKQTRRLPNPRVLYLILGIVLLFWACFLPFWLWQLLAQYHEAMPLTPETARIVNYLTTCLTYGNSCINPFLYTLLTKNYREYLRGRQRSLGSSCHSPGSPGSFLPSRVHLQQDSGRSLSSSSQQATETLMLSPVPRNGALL
Kind of test: Calcium flux assay (FLIPR). It is filed as cell-based. Particulars: Inhibition of acetyl-cyclic[Cys-Phe-Trp-Lys-(2-Nal)-Cys]-NH2 (1 nM) induced Ca2+ mobilization (FLIPR) in CHO cells transfected with rat UII receptor; 5 min incubation. An excerpt: To derive these cells, the complete coding sequence of rat […] was amplified by nested PCR from rat heart marathon-Ready cDNA. […] The PCR products were cloned into pcDNA3 (Invitrogen) digested with EcoR I and Xba I. Clones containing rat U-II receptor were verified by complete sequencing of the U-II receptor insert to ensure a lack of PCR-introduced errors. The constructed vector was transfected into CHO cells by using lipofectamine (GIBCO BRL). CHO cells with high expression of rat U-II receptor were selected and established as stable cell lines by using G418. CHO cells were seeded at 25,000 cells per well into 96-well, black-wall, clear-bottom microtiter plates 24 hrs before assay. Cells in culture media (DMEM/F12 containing 15 mM HEPES, L-glutamine, pyridoxine hydrochloride; 10% fetal bovine serum; 1 mg/mL G418 sulfate; antibiotic-antimycotic; pH 7.4) were loaded with proprietary dye, from the FLIPR Calcium Assay Kit (Molecular Devices), prepared in assay buffer (Hanks Balanced Salts Solution, 20 mM HEPES, 0.1% BSA, 2.5 mM probenecid, pH 7.4), and incubated for 1 hr at 37° C. Calcium mobilization determinations were performed at room temperature (23° C.).
(A change in cytosolic calcium serves as a functional read-out for many receptors and channels.)

Take `O=C(NCCCCCNS(=O)(=O)Cc1ccccc1)c1cc(Cl)ccc1C1CCN(CCN2C(=O)COc3ccccc32)CC1` [Cpd 78, 5-chloro-2-{1-[2-(3-oxo-2,3-dihydro-benzo[1,4]oxazin-4-yl)-ethyl]-piperidin-4-yl}-N-(5-phenylmethanesulfonylamino-pentyl)-benzamide]: the Ki in test [1] came to 0.04 µM. Further, in test [2], the IC50 came to 0.1 µM.
For the molecule `O=C(NCCc1ccccc1)c1ccccc1C1CCN(CCN2C(=O)COc3ccccc32)CC1` [Cpd 1, 2-{1-[2-(3-oxo-2,3-dihydro-benzo[1,4]oxazin-4-yl)-ethyl]-piperidin-4-yl}-N-phenethyl-benzamide], the Ki in test [1] was 2.9 µM. In addition, the IC50 in test [2] was 7.5 µM.
`O=C(NCC1CCN(S(=O)(=O)Cc2ccccc2)CC1)c1cc(Cl)ccc1C1CCN(CCN2C(=O)COc3ccccc32)CC1` [Cpd 72, 5-chloro-2-{1-[2-(3-oxo-2,3-dihydro-benzo[1,4]oxazin-4-yl)-ethyl]-piperidin-4-yl}-N-(1-phenylmethanesulfonyl-piperidin-4-ylmethyl)-benzamide]: the Ki in test [1] was determined as 0.03 µM. Further, the IC50 in test [2] amounted to 0.053 µM.
For `CC(C)(C)OC(=O)NCCCCNC(=O)c1ccccc1C1CCN(CCN2C(=O)COc3ccccc32)CC1` [Cpd 35, [4-(2-{1-[2-(3-oxo-2,3-dihydro-benzo[1,4]oxazin-4-yl)-ethyl]-piperidin-4-yl}-benzoylamino)-butyl]-carbamic acid tert-butyl ester], in that order: 0.59 µM and 3 µM.
For `CC(C)(C)OC(=O)NCCCCCNC(=O)c1cc(Cl)ccc1C1CCN(CCN2C(=O)CCc3ccccc32)CC1` [Cpd 83, [5-(5-chloro-2-{1-[2-(2-oxo-3,4-dihydro-2H-quinolin-1-yl)-ethyl]-piperidin-4-yl}-benzoylamino)-pentyl]-carbamic acid tert-butyl ester], in that order: 0.22 µM and 0.36 µM.
For `O=C(NCCc1ccccc1)c1cc(Cl)ccc1C1CCN(CCN2C(=O)COc3ccccc32)CC1` [Cpd 57, 5-chloro-2-{1-[2-(3-oxo-2,3-dihydro-benzo[1,4]oxazin-4-yl)-ethyl]-piperidin-4-yl}-N-phenethyl-benzamide], in that order: 0.19 µM and 1.3 µM.
For `O=C(NCc1ccccn1)c1ccccc1C1CCN(CCN2C(=O)COc3ccccc32)CC1` [Cpd 41, 2-{1-[2-(3-oxo-2,3-dihydro-benzo[1,4]oxazin-4-yl)-ethyl]-piperidin-4-yl}-N-pyridin-2-ylmethyl-benzamide], the concentration for half-maximal inhibition (IC50) in test [2] was found to be 21 µM.
Same read-out and setting: as for `COc1ccc(OC)c(CCNC(=O)c2ccccc2C2CCN(CCN3C(=O)COc4ccccc43)CC2)c1` [Cpd 13, N-[2-(2,5-dimethoxy-phenyl)-ethyl]-2-{1-[2-(3-oxo-2,3-dihydro-benzo[1,4]oxazin-4-yl)-ethyl]-piperidin-4-yl}-benzamide], the figure is 8 µM; as for `O=C(NCCc1ccncc1)c1ccccc1C1CCN(CCN2C(=O)COc3ccccc32)CC1` [Cpd 45, 2-{1-[2-(3-oxo-2,3-dihydro-benzo[1,4]oxazin-4-yl)-ethyl]-piperidin-4-yl}-N-(2-pyridin-4-yl-ethyl)-benzamide], 16 µM; as for `O=C1COc2ccccc2N1CCN1C2CCC1CC(c1ccccc1)C2` (stereo not shown) [Cpd 101, 4-[2-(3-phenyl-8-aza-bicyclo[3.2.1]oct-8-yl)-ethyl]-4H-benzo[1,4]oxazin-3-one], 19 µM.
Still for that read-out and setting: then `O=C(NCCc1ccc(F)c(F)c1)c1ccccc1C1CCN(CCN2C(=O)COc3ccccc32)CC1` [Cpd 19, N-[2-(3,4-difluoro-phenyl)-ethyl]-2-{1-[2-(3-oxo-2,3-dihydro-benzo[1,4]oxazin-4-yl)-ethyl]-piperidin-4-yl}-benzamide], with 6 µM; and `COc1ccc(CCNC(=O)c2ccccc2C2CCN(CCN3C(=O)COc4ccccc43)CC2)cc1OC` [Cpd 10, N-[2-(3,4-dimethoxy-phenyl)-ethyl]-2-{1-[2-(3-oxo-2,3-dihydro-benzo[1,4]oxazin-4-yl)-ethyl]-piperidin-4-yl}-benzamide], with 13 µM.
As for `O=C(NCCc1ccc(C(F)(F)F)cc1)c1ccccc1C1CCN(CCN2C(=O)COc3ccccc32)CC1` [Cpd 40, 2-{1-[2-(3-oxo-2,3-dihydro-benzo[1,4]oxazin-4-yl)-ethyl]-piperidin-4-yl}-N-[2-(4-trifluoromethyl-phenyl)-ethyl]-benzamide], the IC50 in test [2] was 4 µM.
As for `COCCCNC(=O)c1ccccc1C1CCN(CCN2C(=O)COc3ccccc32)CC1` [Cpd 37, N-(3-methoxy-propyl)-2-{1-[2-(3-oxo-2,3-dihydro-benzo[1,4]oxazin-4-yl)-ethyl]-piperidin-4-yl}-benzamide], the IC50 in test [2] stood at 30 µM.
As for `O=C(NCCc1cc(F)cc(F)c1)c1ccccc1C1CCN(CCN2C(=O)COc3ccccc32)CC1` [Cpd 21, N-[2-(3,5-difluoro-phenyl)-ethyl]-2-{1-[2-(3-oxo-2,3-dihydro-benzo[1,4]oxazin-4-yl)-ethyl]-piperidin-4-yl}-benzamide], the IC50 in test [2] turned out to be 9 µM.
For the molecule `CC(C)NC(=O)NCCCCCNC(=O)c1cc(Cl)ccc1C1CCN(CCN2C(=O)COc3ccccc32)CC1` [Cpd 80, 5-chloro-N-[5-(3-isopropyl-ureido)-pentyl]-2-{1-[2-(3-oxo-2,3-dihydro-benzo[1,4]oxazin-4-yl)-ethyl]-piperidin-4-yl}-benzamide], the IC50 in test [2] was 0.21 µM.
On the same count and under the same terms, then `O=C(NCCc1ccc(Cl)cc1)c1ccccc1C1CCN(CCN2C(=O)COc3ccccc32)CC1` [Cpd 9, N-[2-(4-chloro-phenyl)-ethyl]-2-{1-[2-(3-oxo-2,3-dihydro-benzo[1,4]oxazin-4-yl)-ethyl]-piperidin-4-yl}-benzamide], with 3.2 µM; and `CC(CCc1ccccc1)NC(=O)c1ccccc1C1CCN(CCN2C(=O)COc3ccccc32)CC1` (stereo not shown) [Cpd 25, N-(1-methyl-3-phenyl-propyl)-2-{1-[2-(3-oxo-2,3-dihydro-benzo[1,4]oxazin-4-yl)-ethyl]-piperidin-4-yl}-benzamide], with 4 µM.
As to `CC(C)(C)OC(=O)NCCCCCNC(=O)c1ccccc1C1CC2CCC(C1)N2CCN1C(=O)COc2ccccc21` (stereo not shown) [Cpd 97, [5-(2-{8-[2-(3-oxo-2,3-dihydro-benzo[1,4]oxazin-4-yl)-ethyl]-8-aza-bicyclo[3.2.1]oct-3-yl}-benzoylamino)-pentyl]-carbamic acid tert-butyl ester], the 50% inhibitory concentration (IC50) in test [2] stood at 5.4 µM.
The same measure, in the same setting: then `CC(C)(C)OC(=O)N1CCN(CCNC(=O)c2ccccc2C2CC3CCC(C2)N3CCN2C(=O)COc3ccccc32)CC1` (stereo not shown) [Cpd 96, 4-[2-(2-{8-[2-(3-oxo-2,3-dihydro-benzo[1,4]oxazin-4-yl)-ethyl]-8-aza-bicyclo[3.2.1]oct-3-yl}-benzoylamino)-ethyl]-piperazine-1-carboxylic acid tert-butyl ester], with 3.5 µM; and `O=C(NCCc1ccc(F)cc1)c1ccccc1C1CCN(CCN2C(=O)COc3ccccc32)CC1` [Cpd 16, N-[2-(4-fluoro-phenyl)-ethyl]-2-{1-[2-(3-oxo-2,3-dihydro-benzo[1,4]oxazin-4-yl)-ethyl]-piperidin-4-yl}-benzamide], with 8 µM; and `O=C(NCCc1cc(F)ccc1F)c1ccccc1C1CCN(CCN2C(=O)COc3ccccc32)CC1` [Cpd 22, N-[2-(2,5-difluoro-phenyl)-ethyl]-2-{1-[2-(3-oxo-2,3-dihydro-benzo[1,4]oxazin-4-yl)-ethyl]-piperidin-4-yl}-benzamide], with 13 µM.

In general, Ki refers to a measure of affinity in units of concentration, obtained from inhibition or displacement. In general, IC50 refers to the concentration that inhibits the measured activity by half.
